Laboratory results: US5981497A, “Utilization of sophorolipids as therapeutically active substances or cosmetic products, in particular for the treatment of the skin” (Institut Francais du Petrole, priority 1995, dated 1999)

Assays:
[1] = test system: macrophages (Interleukin-1 release); assay: IL-1 released by macrophages (Elisa sandwich test on culture supernatant); type: cell-based; settings: 25 μg/ml
From the text: It is known, however, that several factors such as cytokines and growth factors play important roles in the process of wound healing. These factors include the epidermal growth factor (EGF), the fibroblastic growth factor (FGF), the platelet-derived growth factor (PDGF), and the beta transforming growth factor (beta-TGF). In addition to these factors, cytokines such as interleukin-l (IL-1), the tumor necrosis factor (TNF), and interleukin-6 (IL-6) also play important roles in the process of wound healing. These factors act by different methods, in combination with other materials, to induce proliferation of dermal and epidermal elements such as fibroblasts. […] Actually, IL-1 affects the differentiation, growth, and activity of many cellular types in the organism. Within the immune system, IL-1 acts as a second signal that is necessary to activate the IL-2 circuit by the activated T lymphocytes. It also potentiates the action of other cytokines. It contributes to the differentiation of B lymphocytes and to their production of immunoglobulins. It modifies vascular permeability by the release of mediators by the endothelial cells and induces the appearance at their surface of a factor that has a procoagulating activity. Owing to its proliferative effect on the fibroblasts, it intervenes in the repair phase.
To show the effect of activating macrophages by sophorolipids, an Elisa sandwich test was carried out on the supernatant of a culture medium that contained macrophages. […] A negative test was also used.

[2] = test system: keratinocyte culture (detachment of corneocytes); assay: Desquamating test, detachment of corneocytes in vitro; type: cell-based
From the text: Variation coefficient CV is obtained as follows: [formula]
Actually, the therapeutic applications incidentally involve cosmetic applications.

in vitro = settings: keratinocyte culture
Experimental: A keratinocyte culture that was placed under conditions that promote the differentiation of cells was selected as a cellular model for the study. The actions of sophorolipids in acid form A, sophorolipids in lactone form B, and lactic acid on the detachment of corneocytes of the selected cellular model were tested in vitro in parallel. In each experiment, the mean difference T60-T0 (corneocytes/ml), as well as the proportion of detached corneocytes, expressed in percentage relative to the negative test (%/TN), were determined.
Cellular viability, measured with the Neutral Red test, is expressed relative to the negative test (%).

| Molecule | Concentrations IL-1 released by macrophages [1] | T60-T0 mean difference ([2]; 10^-3M, p less than 0.001) | activity at 1000 µM ([2]; Keratinocyte, 10^-3M, read-out: %/TN, proportion of detached corneocytes relative to the negative test) | EC (2-fold corneocyte release) ([2]; Keratinocyte, read-out: T200 (concentration which causes a release of corneocytes twice that observed with the negative test)) | viability at 1000 µM (in vitro) |
| --- | --- | --- | --- | --- | --- |
| Lipopolysaccharides [reference compound] | 421.61 pg/mL | – | – | – | – |
| CC(O)C(=O)O (centres unmarked) [Lactic acid, lactic acid, reference compound] | – | 2500 corneocytes/ml | 214% | ~1000 µM | 99.5% |
